Data set [1] is described as follows: Antioxidant activity assessed as DPPH radical scavenging activity at 10 uM by spectrophotometric analysis relative to control. It is filed as functional.
For data set [2], the system named is Mus musculus. The experiment in a line: Antiinflammatory activity in LPS-induced ICR mouse model assessed as reduction in TNF-alpha production in serum at 10 mg/kg, ip pretreated with compound for 1 hr followed by LPS-induction and measured after 60 mins ny ELISA analysis. Also noted: scale not given: the % may be the effect or the level left. The class given is functional. The note with it: time 2 hrs.

The subject of data set [3] is RAW264.7. The experiment in a line: Antiinflammatory activity in LPS-induced mouse RAW264.7 cells assessed as inhibition of TNF-alpha production at 2.5 to 10 uM pretreated with compound for 1 hr followed by LPS-stimulation and measured after 12 hrs by ELISA analysis. It is filed as functional, cell-based. The note with it: dose 2.5-10 µM, time 13.0 hrs. For orientation: ELISA stands for enzyme-linked immunosorbent assay.

The nature of data set [4]: Antioxidant activity assessed as DPPH radical scavenging activity by spectrophotometric analysis. The class given is functional.
Data set [5] concerns RAW264.7. The experiment in a line: Cytotoxicity against LPS-induced mouse RAW264.7 cells assessed as reduction in cell viability at 2.5 to 10 uM measured after 12 hrs by CCK-8 assay. It is filed as toxicity, cell-based. The conditions noted are these: raw264.7, 12 h, dose 2.5-10 µM. In general terms: Tetrazolium dyes change colour on reduction, which living cells bring about.

Data set [6] is filed under the species Mus musculus. Put plainly: Antioxidant activity in Fe2+-induced mouse assessed as inhibition of MDA production in lung homogenate at 250 to 1000 uM incubated for 60 mins. It is filed as functional. The note with it: dose 250-1000 µM.
Data set [7] addresses Phosphodiesterase 4 (Homo sapiens, UniProt P27815+Q08499+Q07343+Q08493). The experiment in a line: Inhibition of PDE4 (unknown origin) using fluorescein-cAMP as substrate incubated for 45 mins by fluorescence polarization assay. It is filed as protein assay. In general terms: In fluorescence polarisation assays a small probe gives low polarisation when free and higher when bound to something large.

The nature of data set [8]: Metal chelating activity assessed as Fe3+-reducing capacity at 0.006 to 0.2 mM incubated for 30 mins by spectrophotometry analysis. The note with it: dose 0.006-0.2 mM.
Data set [9] concerns Mus musculus. The experiment in a line: Antiinflammatory activity in LPS-induced ICR mouse model assessed as reduction in TNF-alpha production in serum at 50 mg/kg, ip pretreated with compound for 1 hr followed by LPS-induction and measured after 60 mins ny ELISA analysis. The class given is functional. Also noted: scale not given: the % may be the effect or the level left. The note with it: time 2 hrs.

Data set [10] in a line: Metabolic stability in human liver microsome assessed as half life measured upto 45 mins in presence of NADPH by LC-MS/MS analysis. The class given is ADME. The conditions noted are these: liver microsomes.
Data set [11] can be described thus: Metal chelating activity assessed as Fe2+-complex formation capacity at 0.1 to 1 mM by spectrophotometry analysis. The note with it: dose 0.1-1 mM.
The subject of data set [12] is Mus musculus. The experiment in a line: Antiinflammatory activity in LPS-induced ICR mouse model assessed as reduction in TNF-alpha production in serum at 100 mg/kg, ip pretreated with compound for 1 hr followed by LPS-induction and measured after 60 mins ny ELISA analysis. The class given is functional. Also noted: scale not given: the % may be the effect or the level left. The conditions noted are these: time 2 hrs.

Data set [13] can be described thus: Metabolic stability in human liver microsome assessed as intrinsic clearance measured upto 45 mins in presence of NADPH by LC-MS/MS analysis. The class given is ADME. The conditions noted are these: liver microsomes, read-out: CLH.

The source made the active and inactive calls. No cut-off for these calls is given here.

Take `COc1ccc(/C=C2\COc3cc(O)ccc3C2=O)cc1O`: the result in [1] was inactive.

With `COc1ccc(C2CNC(=O)C2)cc1OC1CCCC1` (stereo not drawn) [ROLIPRAM], the Activity in [2] is given as 55.1%.

On to `COc1ccc2c(c1)OC/C(=C\c1ccc(O)c(O)c1)C2=O`, for which the Activity in data set [1] was 49.6%.

On to `O=C1/C(=C/c2ccc(O)c(O)c2)Oc2cc(O)ccc21`, for which, in data set [1], the Activity worked out at 30.2%.

As to `COc1ccc(/C=C/C(=O)c2ccc(O)cc2)cc1OCC1CC1`, in data set [1], the result was inactive.

In the case of `CCOc1cc(/C=C/C(=O)c2ccc(O)c(O)c2)ccc1OC`, the result in data set [3] and in data set [6] was Active. Moreover, the IC50 (in general, the concentration needed to halve the response being measured) was 6.2 µM in [4] and 1.45 µM in data set [7]. Further, the Activity result in [5] is “Non-Toxic”.

Take `COc1ccc(/C=C2\Oc3cc(O)ccc3C2=O)cc1OCC1CC1`: the result in data set [1] was inactive.

`O=C1/C(=C/c2ccc(O)c(O)c2)COc2cc(O)ccc21`: the Activity in [1] came to 48.3%.

Regarding `COc1ccc(/C=C/C(=O)c2ccc(O)c(O)c2)cc1OCC1CC1`, the outcome in [3], in data set [8], in [11] and in data set [6] was Active. Also, the Activity in data set [9] is 20.2%; in data set [12], 54.7%; in data set [5], “Non-Toxic”. Besides, the IC50 in data set [4] turned out to be 6.97 µM; in [7], 1.56 µM. In [10], the half-life (in general, the time in which the quantity being followed falls by half) is 48 min. In addition, the CLint scaled in [13] is 36.2 mL/min/kg.

For `COc1ccc2c(c1)OC/C(=C\c1ccc(O)c(OC)c1)C2=O`, the outcome in data set [1] was inactive.

Regarding `CC1=NN(c2ccccc2)C(=O)C1`, the Activity in data set [1] was 23.6%.

As to `COc1cc(/C=C2\COc3cc(O)ccc3C2=O)ccc1O`, the result in data set [1] was inactive.

Take `COc1ccc(/C=C/C(=O)c2ccc(O)c(O)c2)cc1OC1CCCC1`: the outcome in [3] and in [6] was Active. Moreover, the values for the IC50 in data set [4] and in data set [7] were 5.95 µM and 1.82 µM, respectively. In data set [5], the Activity result is given as “Non-Toxic”.

Turning to `COc1ccc(/C=C/C(=O)c2ccc(O)c(O)c2)cc1OC(C)C`, the outcome in [3] and in [6] was Active. The IC50 in data set [4] was 6.36 µM; in data set [7], 1.53 µM. The Activity entry in data set [5] is “Non-Toxic”.

For the compound `COc1ccc(/C=C/C(=O)c2ccc(O)cc2)cc1OC`, in data set [1], the outcome was inactive.

On to `COc1ccc(/C=C2\Oc3cc(O)ccc3C2=O)cc1OC`, for which the result in data set [1] was inactive.

As to `O=C(c1ccc(F)cc1)C1CCN(CCn2c(=O)[nH]c3ccccc3c2=O)CC1` [KETANSERIN], the half-life in [10] is 31.1 min. In addition, the CLint scaled in [13] was 56 mL/min/kg.

Turning to `O=C(/C=C/c1ccc(O)c(O)c1)c1ccc(O)cc1`, in data set [1], the Activity was found to be 60.4%.

As to `COc1ccc(/C=C2\COc3cc(O)ccc3C2=O)cc1OC`, the outcome in data set [1] was inactive.

Regarding `COc1ccc(/C=C/C(=O)c2ccc(O)c(O)c2)cc1OC`, the outcome in [3] and in data set [6] was Active. Besides, the IC50 in data set [4] was 10.9 µM; in data set [7], 2.78 µM. Moreover, the Activity entry in [5] is “Non-Toxic”.

Turning to `COc1ccc(/C=C2\COc3cc(O)ccc3C2=O)cc1OCC1CC1`, the result in [1] was inactive.

For the origin of these results see ChEMBL document CHEMBL5370524, “Design and synthesis of a novel class of PDE4 inhibitors with antioxidant properties as bifunctional agents for the potential treatment of COPD” (Eur J Med Chem, 2023).
